Laboratory results published in US20240010726A1, “LFA-1 SIGNALLING MEDIATOR FOR USE IN CANCER THERAPY” (Universität Basel, priority 2020, published 2024).

Legend:
[1] = target: T1, LFA-1 (Homo sapiens, UniProt P05107+P20701); assay: Flow cytometry of LFA-1 conformations on PHA T cell blasts; format: cell-based
T1 construct: endogenous in cells; host or cells: primary human T cells from healthy donors: PHA-induced T cell blasts, sorted EM and naive CD8 T cells, and NY-ESO-1 TCR-transduced REP T cells
T1 sequence (P20701 26-1170): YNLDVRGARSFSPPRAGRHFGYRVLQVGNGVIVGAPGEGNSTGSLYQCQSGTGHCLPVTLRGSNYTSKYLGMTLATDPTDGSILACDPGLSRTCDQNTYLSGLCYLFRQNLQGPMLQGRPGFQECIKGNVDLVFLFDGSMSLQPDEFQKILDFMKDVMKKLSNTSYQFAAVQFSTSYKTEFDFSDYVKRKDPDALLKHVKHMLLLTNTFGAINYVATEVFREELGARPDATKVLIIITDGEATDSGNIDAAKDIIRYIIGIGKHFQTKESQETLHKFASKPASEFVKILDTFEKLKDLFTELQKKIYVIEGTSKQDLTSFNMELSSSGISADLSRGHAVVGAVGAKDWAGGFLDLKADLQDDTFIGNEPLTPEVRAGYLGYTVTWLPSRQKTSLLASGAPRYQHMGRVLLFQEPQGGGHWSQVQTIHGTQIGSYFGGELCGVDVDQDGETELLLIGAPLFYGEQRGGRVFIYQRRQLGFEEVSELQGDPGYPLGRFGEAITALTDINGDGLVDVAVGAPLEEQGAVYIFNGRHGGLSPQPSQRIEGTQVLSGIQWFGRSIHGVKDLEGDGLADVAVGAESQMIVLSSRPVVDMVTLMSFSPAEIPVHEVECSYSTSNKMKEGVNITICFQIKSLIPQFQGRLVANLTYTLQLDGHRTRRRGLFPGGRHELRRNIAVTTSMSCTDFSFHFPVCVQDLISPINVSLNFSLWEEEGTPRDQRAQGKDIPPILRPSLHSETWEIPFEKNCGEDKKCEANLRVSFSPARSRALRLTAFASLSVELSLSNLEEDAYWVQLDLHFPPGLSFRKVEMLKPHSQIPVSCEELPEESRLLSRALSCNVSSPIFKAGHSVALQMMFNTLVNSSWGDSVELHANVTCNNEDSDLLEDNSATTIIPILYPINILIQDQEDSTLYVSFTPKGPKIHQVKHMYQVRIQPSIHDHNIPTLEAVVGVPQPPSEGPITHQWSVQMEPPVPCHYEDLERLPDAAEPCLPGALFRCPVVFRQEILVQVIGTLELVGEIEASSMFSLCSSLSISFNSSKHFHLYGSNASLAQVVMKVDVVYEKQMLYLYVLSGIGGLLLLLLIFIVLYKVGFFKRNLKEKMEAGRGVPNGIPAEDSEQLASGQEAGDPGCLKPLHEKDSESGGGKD
T1 sequence (P05107 23-769): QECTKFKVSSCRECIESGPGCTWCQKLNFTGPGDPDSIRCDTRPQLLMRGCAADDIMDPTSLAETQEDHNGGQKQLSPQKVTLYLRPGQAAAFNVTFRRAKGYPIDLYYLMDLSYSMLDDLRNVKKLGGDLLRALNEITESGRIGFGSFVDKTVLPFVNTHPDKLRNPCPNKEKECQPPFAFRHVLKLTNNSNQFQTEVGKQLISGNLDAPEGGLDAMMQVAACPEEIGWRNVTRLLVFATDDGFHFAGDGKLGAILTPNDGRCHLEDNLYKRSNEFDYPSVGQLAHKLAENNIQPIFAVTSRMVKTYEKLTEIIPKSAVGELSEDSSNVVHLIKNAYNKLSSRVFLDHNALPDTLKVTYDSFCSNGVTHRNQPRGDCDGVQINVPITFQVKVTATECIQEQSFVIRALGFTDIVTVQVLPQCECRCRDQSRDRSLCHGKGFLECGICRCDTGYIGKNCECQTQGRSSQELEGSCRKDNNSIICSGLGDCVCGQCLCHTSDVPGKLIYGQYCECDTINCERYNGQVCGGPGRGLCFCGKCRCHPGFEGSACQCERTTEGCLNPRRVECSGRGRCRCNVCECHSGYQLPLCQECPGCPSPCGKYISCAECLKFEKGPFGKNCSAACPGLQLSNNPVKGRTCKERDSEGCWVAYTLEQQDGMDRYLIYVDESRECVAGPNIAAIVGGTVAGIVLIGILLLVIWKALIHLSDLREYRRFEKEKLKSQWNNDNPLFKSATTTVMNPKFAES
Procedure: Glycolytic switch of human EM CD8 T cells (a) and naïve CD8 T cells (b) subsets upon injection of anti-CD3 Ab only, or anti-CD3 and anti-CD28 Ab, was assessed by metabolic flux analysis in medium containing either 1.2 mM Mg^2+, 0 mM Mg^2+, or medium which was reconstituted from 0 mM to 1.2 mM Mg^2+ immediately prior to activation (0→1.2 mM Mg^2+). (a) Results for human effector memory (EM) and (b) for human naïve CD8 T cells. Glycolytic switch was quantified by subtracting […] measurements. (c) Flow cytometric analysis of surface activation markers on human EM CD8 T cells 24 hours after activation by plate-bound anti-CD3 Ab and soluble anti-CD28 Ab, in 1.2 mM and 0 mM Mg^2+ media, respectively. (d) Abundance of inflammatory cytokines in corresponding EM CD8 T cell culture supernatants, determined by CBA. (e) CD11a (LFA-1) surface expression on human naïve and EM CD8 T cells as well PHA T cell blasts. Flow cytometry-based assessment of total LFA-1 expression assessed by mAb TS2/4 (f), closed conformation of αL by mAb HI111 (g), extended conformation of LFA-1 by mAb Kim127 (h), open head-piece conformation of LFA-1 by mAb m24 (i), phosphorylation of focal adhesion kinase (FAK) […] as well TNF expression (k)±TCR-induced activation in different extracellular Mg^2+ concentrations. (l) Flow cytometry-based assessment of LFA-1 with open-head piece conformation on human EM and naïve CD8 T cells using the open head-piece reporter mAb m24. (m) Assessment of glycolytic switch of EM CD8 T cells. (n) Assessment of glycolytic switch of naïve CD8 T cells. […] Naïve CD8 T cells were activated with in house generated anti-CD3/anti-CD28 coated microbeads. Polybead microspheres ([…], Polyscience […]) were incubated with 1 μg anti-CD3 Ab and 10 μg anti-CD28 Ab. […] Primary human T cells were activated for 24 h and PHA-blasts for 4 h. For evaluation of activation induced LFA-1 head-piece opening, T cells were activated for […] and anti-human CD11a/CD18 (clone m24) was directly added in medium and incubated on ice for 20 min. Cells were then washed twice in FACS Buffer and fixed in 2% PFA, incubated at room temperature for 20 min and washed with FACS Buffer before acquisition. […] For stainings with HI111, the cells were activated for 45 min, fixed with 2% PFA and subsequently stained with HI111 and washed with FACS Buffer before acquisition.

[2] = system: human EM CD8 T cells; assay: Metabolic flux analysis, glycolytic switch of EM CD8 T cells; format: cell-based
Procedure: FIG. 2: Extracellular magnesium promotes memory-specific activation via LFA-1. Glycolytic switch of human EM CD8 T cells (a) and naïve CD8 T cells (b) subsets upon injection of anti-CD3 Ab only, or anti-CD3 and anti-CD28 Ab, was assessed by metabolic flux analysis in medium containing either 1.2 mM Mg^2+, 0 mM Mg^2+, or medium which was reconstituted from 0 mM to 1.2 mM Mg^2+ immediately prior to activation (0→1.2 mM Mg^2+). (a) Results for human effector memory (EM) and (b) for human naïve CD8 T cells. Glycolytic switch was quantified by subtracting […] measurements. (c) Flow cytometric analysis of surface activation markers on human EM CD8 T cells 24 hours after activation by plate-bound anti-CD3 Ab and soluble anti-CD28 Ab, in 1.2 mM and 0 mM Mg^2+ media, respectively. (d) Abundance of inflammatory cytokines in corresponding EM CD8 T cell culture supernatants, determined by CBA. (e) CD11a (LFA-1) surface expression on human naïve and EM CD8 T cells as well PHA T cell blasts. Flow cytometry-based assessment of total LFA-1 expression assessed by mAb TS2/4 (f), closed conformation of αL by mAb HI111 (g), extended conformation of LFA-1 by mAb Kim127 (h), open head-piece conformation of LFA-1 by mAb m24 (i), phosphorylation of focal adhesion kinase (FAK) […] as well TNF expression (k)±TCR-induced activation in different extracellular Mg^2+ concentrations. (l) Flow cytometry-based assessment of LFA-1 with open-head piece conformation on human EM and naïve CD8 T cells using the open head-piece reporter mAb m24. (m) Assessment of glycolytic switch of EM CD8 T cells. (n) Assessment of glycolytic switch of naïve CD8 T cells. […] FIG. 4: […] Pooled results from n=6 healthy donors from 3 independent experiments. (b) CD69 expression of PHA T cell blasts upon activation with indicated concentrations of plate-bound anti-CD3 mAb in ±Mg^2+ containing medium. […] Cytotoxicity was quantified after adding luciferin to medium and measuring luminescent signal intensity. […] Cytotoxicity was quantified after adding luciferin to medium and measuring luminescent signal intensity. […]

[3] = PHA T cell blasts ±TCR-induced activation, different extracellular Mg^2+ concentrations

Structure (SMILES): [Mg+2] [Mg^2+, Magnesium]
- Extended conformation of LFA-1 (mAb KIM127) ([1]; PHA T cell blasts upon T-cell activation, increasing extracellular Mg^2+ concentrations): dose-dependent KIM127 signal increase
- Inactive/bent LFA-1 conformation (mAb HI111) ([1]; PHA T cell blasts upon TCR stimulation, decreasing extracellular Mg^2+ concentrations): higher levels of inactive LFA-1
- Open head-piece conformation of LFA-1 (mAb m24) [1, 3]: strongly depending on extracellular Mg^2+ concentration
- Total LFA-1 expression (mAb TS2/4 epitope) [1, 3]: independent on the extracellular Mg^2+ concentration
- LFA-1 activation in unstimulated T cells ([1]; ±Mg^2+, data not shown): did not differ
- Glycolytic switch of EM CD8^+ T cells upon supra-physiologic activation ([2]; anti-CD3/anti-CD28 Ab plus secondary cross-linking Ab, 0 mM, 1.2 mM, 0→1.2 mM Mg^2+): lost
- Glycolytic switch (ECAR) of EM CD8 T cells ([2]; anti-CD3 or anti-CD3/anti-CD28 Ab, 0 mM vs 1.2 mM Mg^2+): blunted
- Glycolytic switch (ECAR) of EM CD8 T cells after Mg^2+ add-back ([2]; medium reconstituted 0→1.2 mM Mg^2+ immediately prior to activation): fully revertible
